What was measured:
[1] = xn = mol fraction of the nth substance listed; conditions: 100 kPa, Liquid; for viscosity: Falling or rolling sphere viscometry; for mass density: Vibrating tube method
[2] = 100 kPa, Liquid; for viscosity: Falling or rolling sphere viscometry; for mass density: Vibrating tube method

CC1CCCCC1 [methylcyclohexane] + OC1CCCC1
[1], x1 = 1
Conditions	mass density [kg/m3]	viscosity [mPa·s]
293.15 K	769.35	0.735
298.15 K	765	0.689
303.15 K	760.65	0.647
308.15 K	756.3	0.611
313.15 K	751.93	0.577
318.15 K	747.56	0.547
323.15 K	743.16	0.519
328.15 K	738.74	0.495
333.15 K	734.29	0.473
338.15 K	729.82	0.453
343.15 K	725.32	0.434

CC1CCCCC1 [methylcyclohexane]
[2]
Conditions	mass density [kg/m3]	viscosity [mPa·s]
293.15 K	769.35	0.735
298.15 K	765	0.689
303.15 K	760.65	0.647
308.15 K	756.3	0.611
313.15 K	751.93	0.577
318.15 K	747.56	0.547
323.15 K	743.16	0.519
328.15 K	738.74	0.495
333.15 K	734.29	0.473
338.15 K	729.82	0.453
343.15 K	725.32	0.434

OC1CCCC1 [cyclopentanol]
[2]
Conditions	mass density [kg/m3]	viscosity [mPa·s]
293.15 K	946.99	11.88
298.15 K	943.05	9.722
303.15 K	939.05	8.068
308.15 K	935.01	7.077
313.15 K	930.91	6.04
318.15 K	926.75	5.19
323.15 K	922.53	4.441
328.15 K	918.24	3.83
333.15 K	913.89	3.312
338.15 K	909.48	2.886
343.15 K	904.99	2.53

C1CC[C@H]2CCCC[C@H]2C1 [cis-decahydronaphthalene] + C1CC[C@H]2CCCC[C@@H]2C1
[1], x1 = 0.5
Conditions	mass density [kg/m3]	viscosity [mPa·s]
293.15 K	880.41	2.488
298.15 K	876.64	2.255
303.15 K	872.86	2.054
308.15 K	869.1	1.88
313.15 K	865.33	1.727
318.15 K	861.56	1.592
323.15 K	857.8	1.473
328.15 K	854.02	1.367
333.15 K	850.25	1.272
338.15 K	846.47	1.188
343.15 K	842.68	1.111

— the NIST ThermoML archive (doi:10.1021/acs.jced.8b01004)
